Laboratory results as given in US10053428B2, “5-aminotetrahydroquinoline-2-carboxylic acids and their use” (BAYER PHARMA AKTIENGESELLSCHAFT, priority 2012, dated 2018).
Where two headings read alike, the source gives them in different places.

How the values were obtained:
saphenous artery rings = test: Vasorelaxant effect in vitro (phenylephrine-contracted saphenous artery rings); set-up: species or system Rabbits; conditions: rabbit saphenous artery rings, read-out: IC50 (concentration reducing phenylephrine-induced contraction by 50%)
Procedure: B-3. Vasorelaxant Effect In Vitro
Rabbits are anaesthetized and sacrificed by intravenous injection of thiopental sodium (about 50 mg/kg) and exsanguinated. The saphenous artery is removed and divided into rings 3 mm wide. The rings are mounted singly on in each case a pair of triangular hooks open at the end and made of 0.3 mm-thick special wire (Remanium®). Each ring is placed under an initial tension in 5 ml organ baths with Krebs-Henseleit solution which is at 37° C., is gassed with carbogen and has the following composition: NaCl 119 mM; KCl 4.8 mM; CaCl2×2 H2O 1 mM; MgSO4×7H2O 1.4 mM; KH2PO4 1.2 mM; NaHCO3 25 mM; glucose 10 mM; bovine serum albumin 0.001%. The force of contraction is detected with Statham UC2 cells, amplified and digitized via A/D converters (DAS-1802 HC, Keithley Instruments, Munich) and recorded in parallel on chart recorders. Contractions are induced by addition of phenylephrine.
After several (generally 4) control cycles, the substance to be investigated is added in each further run in increasing dosage, and the level of the contraction achieved under the influence of the test substance is compared with the level of the contraction reached in the last preceding run. The concentration necessary to reduce the contraction reached in the preceding control by 50% is calculated from this (IC50). The standard application volume is 5 μl. The proportion of DMSO in the bath solution corresponds to 0.1%.

[1] = system: recombinant guanylate cyclase reporter cell line; test: sGC-activating activity in the CHO reporter cell in vitro; assay type: cell-based; conditions: read-out: MEC (minimum effective concentration)
Procedure: B-2. Action at a Recombinant Guanylate Cyclase Reporter Cell Line
The cellular action of the compounds according to the invention is determined at a recombinant guanylate cyclase reporter cell line, as described in F. Wunder et al., Anal. Biochem. 32, 104-112 (2005).

[2] = target: T1, haem-containing recombinant soluble guanylate cyclase (sGC) (Rattus norvegicus, UniProt P20595); test: Stimulation of recombinant soluble guanylate cyclase (sGC) in vitro, haem-containing enzyme; assay type: biochemical
T1 construct: made in house; host or cells: Sf9 insect cells (baculovirus)
T1 sequence (P20595 1-619): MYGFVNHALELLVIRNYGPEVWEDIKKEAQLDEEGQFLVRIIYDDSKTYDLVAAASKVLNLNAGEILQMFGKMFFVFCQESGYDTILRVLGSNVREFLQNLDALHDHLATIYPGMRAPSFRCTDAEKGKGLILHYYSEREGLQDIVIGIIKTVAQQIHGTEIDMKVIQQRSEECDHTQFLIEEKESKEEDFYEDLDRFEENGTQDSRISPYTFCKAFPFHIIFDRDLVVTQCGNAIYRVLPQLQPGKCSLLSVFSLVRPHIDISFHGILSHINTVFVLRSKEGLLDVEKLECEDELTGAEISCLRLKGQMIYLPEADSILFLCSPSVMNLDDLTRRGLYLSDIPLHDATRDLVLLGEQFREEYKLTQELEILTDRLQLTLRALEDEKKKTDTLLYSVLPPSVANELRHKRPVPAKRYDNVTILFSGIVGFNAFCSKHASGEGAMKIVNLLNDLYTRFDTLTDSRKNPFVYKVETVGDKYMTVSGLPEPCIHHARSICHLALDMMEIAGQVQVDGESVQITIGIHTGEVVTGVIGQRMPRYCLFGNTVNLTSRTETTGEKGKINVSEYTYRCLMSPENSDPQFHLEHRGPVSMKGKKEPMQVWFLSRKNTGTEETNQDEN
T1 sequence (P19686 1-690 partner): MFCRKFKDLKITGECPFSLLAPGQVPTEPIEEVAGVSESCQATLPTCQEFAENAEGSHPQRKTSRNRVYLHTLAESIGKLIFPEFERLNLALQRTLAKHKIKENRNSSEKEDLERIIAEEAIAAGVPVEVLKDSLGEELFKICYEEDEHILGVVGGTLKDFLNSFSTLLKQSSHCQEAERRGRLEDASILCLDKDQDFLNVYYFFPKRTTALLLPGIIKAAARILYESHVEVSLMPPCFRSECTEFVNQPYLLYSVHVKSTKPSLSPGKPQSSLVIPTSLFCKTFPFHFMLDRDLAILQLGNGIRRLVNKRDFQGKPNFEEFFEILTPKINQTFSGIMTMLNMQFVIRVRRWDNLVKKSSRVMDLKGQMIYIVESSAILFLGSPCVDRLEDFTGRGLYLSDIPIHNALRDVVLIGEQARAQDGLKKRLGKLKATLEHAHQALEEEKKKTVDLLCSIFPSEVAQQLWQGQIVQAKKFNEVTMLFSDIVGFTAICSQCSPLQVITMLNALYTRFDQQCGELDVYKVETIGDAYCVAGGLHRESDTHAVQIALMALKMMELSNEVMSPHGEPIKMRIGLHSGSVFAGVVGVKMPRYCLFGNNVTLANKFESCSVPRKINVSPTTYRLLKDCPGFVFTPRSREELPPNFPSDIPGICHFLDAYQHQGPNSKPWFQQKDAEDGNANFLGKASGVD
Procedure: (§1) B-1. Stimulation of Recombinant Soluble Guanylate Cyclase (sGC) In Vitro
(§2) Investigations on the stimulation of recombinant soluble guanylate cyclase (sGC) by the compounds according to the invention with and without sodium nitroprusside, and with and without the haem-dependent sGC inhibitor 1H-1,2,4-oxadiazolo[4,3a]quinoxalin-1-one (ODQ), are carried out by the method described in detail in the following reference: M. Hoenicka, E. M. Becker, H. Apeler, T. Sirichoke, H. Schroeder, R. Gerzer and J.-P. Stasch, “Purified soluble guanylyl cyclase expressed in a baculovirus/Sf9 system: Stimulation by YC-1, nitric oxide, and carbon oxide”, J. Mol. Med 77 (1999), 14-23. The haem-free guanylate cyclase is obtained by adding Tween 20 to the sample buffer (0.5% in the final concentration).
The activation of sGC by a test substance is reported as x-fold stimulation of the basal activity. The result for Example 2 is shown in Table 1A, that for Example 23 in Table 1B and that for Example 39 in Table 1C:
[DEA/NO=2-(N,N-diethylamino)diazenolate 2-oxide; ODQ=1H-1,2,4-oxadiazolo-[4,3a]quinoxalin-1-one].

[3] = target: T2, haem-free recombinant soluble guanylate cyclase (sGC) (Rattus norvegicus, UniProt P20595); test: Stimulation of recombinant soluble guanylate cyclase (sGC) in vitro, haem-free enzyme; assay type: biochemical
T2 construct: made in house; host or cells: Sf9 insect cells (baculovirus)
T2 sequence (P20595 1-619): T1 sequence (P20595 1-619)
T2 sequence (P19686 1-690 partner): T1 sequence (P19686 1-690 partner)
Procedure: as §1, §2
The activation of sGC by a test substance is reported as x-fold stimulation of the basal activity. The result for Example 2 is shown in Table 1A, that for Example 23 in Table 1B and that for Example 39 in Table 1C: […]

SMILES: CC(C)(C)c1ccc(COc2ccccc2CCN(CCCCC(=O)O)C2CCCc3nc(C(=O)O)ccc32)cc1 (single isomer, unassigned) [Example 4]
- IC50 (saphenous artery rings; Oryctolagus cuniculus): 0.3 nM
- minimal effective concentration [1]: 0.5 nM

SMILES: O=C(O)c1ccc(CCN(CCc2ccccc2OCc2ccc(-c3ccc(C(F)(F)F)cc3)cc2Cl)C2CCCc3nc(C(=O)O)ccc32)cc1 (single isomer, unassigned; enantiomer 2) [Example 23, 5-{[2-(4-Carboxyphenyl)ethyl][2-(2-{[3-chloro-4′-(trifluoromethyl)biphenyl-4-yl]methoxy}-phenyl)ethyl]amino}-5,6,7,8-tetrahydroquinoline-2-carboxylic acid (Enantiomer 2)]
- Effect of combination with the NO donor DEA/NO on sGC stimulation [2]: no synergistic effect
- Stimulation (x-fold), haem-containing sGC, basal ([2]; test compound 0.01 μM): 8.3 ± 1.1 x-fold
- Stimulation (x-fold), haem-containing sGC, +0.1 μM DEA/NO ([2]; test compound 0.01 μM): 24.5 ± 4.4 x-fold
- Stimulation (x-fold), haem-containing sGC, +10 μM ODQ ([2]; test compound 0.01 μM): 16.9 ± 3.3 x-fold
- Stimulation (x-fold), haem-containing sGC, basal ([2]; test compound 0.1 μM): 54.2 ± 11.9 x-fold
- Stimulation (x-fold), haem-containing sGC, +0.1 μM DEA/NO ([2]; test compound 0.1 μM): 77.1 ± 9.2 x-fold
- Stimulation (x-fold), haem-containing sGC, +10 μM ODQ ([2]; test compound 0.1 μM): 105.4 ± 18.0 x-fold
- Stimulation (x-fold), haem-containing sGC, basal ([2]; test compound 1.0 μM): 108.7 ± 16.3 x-fold
- Stimulation (x-fold), haem-containing sGC, +0.1 μM DEA/NO ([2]; test compound 1.0 μM): 155.2 ± 20.7 x-fold
- Stimulation (x-fold), haem-containing sGC, +10 μM ODQ ([2]; test compound 1.0 μM): 216.1 ± 28.9 x-fold
- Stimulation (x-fold), haem-containing sGC, basal ([2]; test compound 10 μM): 135.7 ± 20.0 x-fold
- Stimulation (x-fold), haem-containing sGC, +0.1 μM DEA/NO ([2]; test compound 10 μM): 180.4 ± 22.9 x-fold
- Stimulation (x-fold), haem-containing sGC, +10 μM ODQ ([2]; test compound 10 μM): 227.0 ± 31.7 x-fold
- Stimulation (x-fold), haem-containing sGC, basal ([2]; test compound 100 μM): 180.5 ± 21.2 x-fold
- Stimulation (x-fold), haem-containing sGC, +0.1 μM DEA/NO ([2]; test compound 100 μM): 241.0 ± 34.4 x-fold
- Stimulation (x-fold), haem-containing sGC, +10 μM ODQ ([2]; test compound 100 μM): 261.7 ± 32.1 x-fold
- Stimulation (x-fold), haem-free sGC, basal ([3]; test compound 0.01 μM): 52.5 ± 3.8 x-fold
- Stimulation (x-fold), haem-free sGC, basal ([3]; test compound 0.1 μM): 184.3 ± 15.4 x-fold
- Stimulation (x-fold), haem-free sGC, basal ([3]; test compound 1.0 μM): 284.7 ± 18.8 x-fold
- Stimulation (x-fold), haem-free sGC, basal ([3]; test compound 10 μM): 310.4 ± 22.6 x-fold
- Stimulation (x-fold), haem-free sGC, basal ([3]; test compound 100 μM): 342.0 ± 27.6 x-fold
- minimal effective concentration [1]: 0.7 nM

SMILES: Cc1ccc2oc(-c3ccc(COc4ccccc4CCN(CCCCC(=O)O)C4CCCc5nc(C(=O)O)ccc54)cc3)nc2c1 (single isomer, unassigned; enantiomer 1) [Example 1, (−)-5-{(4-Carboxybutyl)[2-(2-{[4-(5-methyl-1,3-benzoxazol-2-yl)benzyl]oxy}phenyl)ethyl]-amino}-5,6,7,8-tetrahydroquinoline-2-carboxylic acid (Enantiomer 1)]
- IC50 (saphenous artery rings): 571 nM
- minimal effective concentration [1]: 160 nM

SMILES: O=C(O)CCCCN(CCc1ccccc1OCc1ccc(CCc2ccccc2)cc1)C1CCCc2nc(C(=O)O)ccc21 (single isomer, unassigned; enantiomer 1) [Example 13, 5-{(4-Carboxybutyl)[2-(2-{[4-(2-phenylethyl)benzyl]oxy}phenyl)ethyl]amino}-5,6,7,8-tetrahydroquinoline-2-carboxylic acid (Enantiomer 1)]
- IC50 (saphenous artery rings): 0.1 nM
- minimal effective concentration [1]: 0.3 nM

SMILES: O=C(O)CCCCN(CCc1ccccc1OCc1ccc(-c2ccc(C(F)(F)F)cc2)cc1)C1CCCc2nc(C(=O)O)ccc21 (single isomer, unassigned) [Example 18]
- IC50 (saphenous artery rings; Oryctolagus cuniculus): 0.4 nM
- minimal effective concentration [1]: 0.3 nM

SMILES: O=C(O)CCCCN(CCc1ccccc1OCc1ccc(CCc2ccc(F)cc2)cc1)C1CCCc2nc(C(=O)O)ccc21 (single isomer, unassigned) [Example 15]
- IC50 (saphenous artery rings): 0.2 nM
- minimal effective concentration [1]: 0.3 nM

SMILES: O=C(O)c1ccc(CCN(CCc2cc(F)ccc2OCc2ccc(-c3nc4cc(Cl)ccc4o3)cc2)C2CCCc3nc(C(=O)O)ccc32)cc1 (single isomer, unassigned; enantiomer 2) [Example 39, 5-{[2-(4-Carboxyphenyl)ethyl][2-(2-{[4-(5-chloro-1,3-benzoxazol-2-yl)benzyl]oxy}-5-fluorophenyl)ethyl]amino}-5,6,7,8-tetrahydroquinoline-2-carboxylic acid (Enantiomer 2)]
- Effect of combination with the NO donor DEA/NO on sGC stimulation [2]: no synergistic effect
- Stimulation (x-fold), haem-containing sGC, basal ([2]; test compound 0.01 μM): 17.4 ± 2.4 x-fold
- Stimulation (x-fold), haem-containing sGC, +0.1 μM DEA/NO ([2]; test compound 0.01 μM): 46.5 ± 2.8 x-fold
- Stimulation (x-fold), haem-containing sGC, +10 μM ODQ ([2]; test compound 0.01 μM): 42.0 ± 4.9 x-fold
- Stimulation (x-fold), haem-containing sGC, basal ([2]; test compound 0.1 μM): 73.0 ± 7.7 x-fold
- Stimulation (x-fold), haem-containing sGC, +0.1 μM DEA/NO ([2]; test compound 0.1 μM): 115.5 ± 11.9 x-fold
- Stimulation (x-fold), haem-containing sGC, +10 μM ODQ ([2]; test compound 0.1 μM): 145.6 ± 14.7 x-fold
- Stimulation (x-fold), haem-containing sGC, basal ([2]; test compound 1.0 μM): 96.6 ± 8.5 x-fold
- Stimulation (x-fold), haem-containing sGC, +0.1 μM DEA/NO ([2]; test compound 1.0 μM): 145.2 ± 15.9 x-fold
- Stimulation (x-fold), haem-containing sGC, +10 μM ODQ ([2]; test compound 1.0 μM): 182.5 ± 17.6 x-fold
- Stimulation (x-fold), haem-containing sGC, basal ([2]; test compound 10 μM): 108.6 ± 9.0 x-fold
- Stimulation (x-fold), haem-containing sGC, +0.1 μM DEA/NO ([2]; test compound 10 μM): 159.4 ± 17.9 x-fold
- Stimulation (x-fold), haem-containing sGC, +10 μM ODQ ([2]; test compound 10 μM): 188.7 ± 16.5 x-fold
- Stimulation (x-fold), haem-containing sGC, basal ([2]; test compound 100 μM): 143.6 ± 13.4 x-fold
- Stimulation (x-fold), haem-containing sGC, +0.1 μM DEA/NO ([2]; test compound 100 μM): 192.1 ± 24.6 x-fold
- Stimulation (x-fold), haem-containing sGC, +10 μM ODQ ([2]; test compound 100 μM): 208.5 ± 19.0 x-fold
- Stimulation (x-fold), haem-free sGC, basal ([3]; test compound 0.01 μM): 39.0 ± 5.8 x-fold
- Stimulation (x-fold), haem-free sGC, basal ([3]; test compound 0.1 μM): 176.9 ± 29.9 x-fold
- Stimulation (x-fold), haem-free sGC, basal ([3]; test compound 1.0 μM): 284.9 ± 54.5 x-fold
- Stimulation (x-fold), haem-free sGC, basal ([3]; test compound 10 μM): 311.5 ± 55.9 x-fold
- Stimulation (x-fold), haem-free sGC, basal ([3]; test compound 100 μM): 309.4 ± 54.8 x-fold
- minimal effective concentration [1]: 1 nM
